Measurements from patent publication US20260265190A1, “AROMATIC COMPOUNDS FOR USE AS PROTEIN PHOSPHATASE 2A (PP2A) MODULATORS” (RAPPTA THERAPEUTICS OY, priority 2022, published 2026).

Test system: HCC1937 cells
Assay: Cell viability assay (MTS), HCC1937 cell line
Type: cell-based
Settings: Homo sapiens, HCC1937 cell line (footnote a), 48 hours
Method: HCC1937 cells are plated in a 96 well plate format at a density of 10,000 cells per well. After incubation overnight, cells are treated with a compound (e.g., compound 5) at the following concentrations: 80, 40, 20, 10, 5, 2.5, 1.25 μM. Compound concentrations are prepared in RPMI via serial dilutions from a starting stock of 80 mM. Forty-eight (48) hours after compound treatment, cell viability is assessed using the Promega CellTiter 96 aqueous one proliferation assay (Promega G3582, MTS assay) according to manufacturer's protocol.
The cell viability data was analyzed with GraphPad Prism software. The values were log transformed and analyzed with non-linear regression (curve-fit) using log (inhibitor) vs. response—variable slope (four parameters) and constraining the bottom to equal zero. Unless otherwise indicated, the GI50 values provided in Table 1 correspond to the LNCaP cell viability assays.

GI50: 48.7 µM
SMILES: O=S(=O)(N[C@H](c1ccc(Cl)cn1)C1CCNCC1)c1ccc(OC(F)(F)F)cc1 [Example 15, (S)-N-((5-chloropyridin-2-yl)(piperidin-4-yl)methyl)-4-(trifluoromethoxy)benzenesulfonamide]
